PMC9976467, “Anti-Trypanosoma cruzi activity of Coptis rhizome extract and its constituents” (Tropical Medicine and Health, 2023)

Assays:
[1] = Cytotoxicity, alamarBlue viability, NMH cells; format: cell-based, mouse; conditions: mouse
Protocol: (§1) NMH cells or HuH28 cells (1 × 10^4/well) of 100 μl aliquots were seeded on a 96-well black plate. Test samples were added and incubated for 72 h. NP-40 was added as a positive control (100% cytotoxicity) and a solvent in which the samples were dissolved as a negative control (0% cytotoxicity). Then 10 μl of alamarBlue reagent (10%, Funakoshi Co., Tokyo, Japan) for mitochondria staining was added and incubated for another 4 h. The fluorescence intensity (544 nm/590 nm) was measured with a plate reader (measurement time: 0.1 s).
(§2) The concentration required to reduce cell viability by 50% (CC50) was calculated using the following equation: CC50=10^logA/B×50-C/D-C+logB, where A is the lowest concentration at which the cell viability exceeds 50%, B is the highest concentration at which cell viability is less than 50%, and C and D are the cell viability of the sample at concentrations B and A, respectively.

[2] = target: T. cruzi Trypo + Ama (Luc2-Tulahuen); experiment: In vitro anti-T. cruzi (trypomastigotes and amastigotes) mixture culture luciferase assay; format: cell-based, Trypanosoma cruzi; conditions: for IC50 / inhibition at 20 µM: Trypanosoma cruzi, TULAHUEN; for IC50: trypomastigotes mixed with NMH cells, 72 h; for reduction of parasite signals (inhibition in the T. cruzi mixture culture): first screen, compounds 20 μM (Fig. 1); for inhibition at 20 µM: read-out: reduction of parasite signals (inhibition in the T. cruzi mixture culture)
Protocol: Luc2-Tulahuen trypomastigotes (3 × 10^4/well) and NMH cells (5 × 10^4/well) were mixed into a 96-well white plate. Test samples and controls were added and incubated with the cells for 72 h. NP-40 (Wako Pure Chemicals Industrial Ltd, Japan) was used as the positive control, and a solvent in which the drug was dissolved as a negative. After 72 h of incubation, 100 μl of luciferin solution containing 0.6% NP-40 (Piccagene) (Toyo Ink Group, Japan) was added. Luminescence intensity was measured by a plate reader (ARVO MX 1420) (Measurement time: 1 s).
(§3) The IC50 was calculated using the following equation: IC50=10^logA/B×50-C/D-C+logB, where A is the lowest concentration at which the percentage inhibition exceeds 50%, B is the highest concentration at which percentage inhibition is less than 50%, and C and D are the percentage inhibition of the sample at concentrations B and A, respectively.

[3] = tested on: T. cruzi Intracell Ama (Luc2-Tulahuen); experiment: In vitro anti-T. cruzi (intracellular amastigotes) luciferase assay in NMH cells; format: cell-based, Trypanosoma cruzi; conditions: for loss of luminescence intensity in IC50 curve, in words: NMH cells with amastigotes (Supplement Figure 2); for IC50: Trypanosoma cruzi, TULAHUEN, infected NMH cells, 72 h
Protocol: The intracellular amastigotes assay was described by Alonso-Padilla et al.. Briefly, 6 × 10^6 trypomastigotes and 3 × 10^6 host cells (NMH cells) are seeded in a 25 cm^2 flask in serum-free media (MEM + 1% newborn calf serum) to enhance the intracellular infection. After 24 h incubation, the cells were washed twice with phosphate buffered saline (PBS), then replaced by MEM + 10% newborn calf serum and incubated for another 24 h. Infected cells were detached by trypsinization. Infected host fibroblast cells (5 × 10^4/well) were seeded into a 96-well plate. Test samples and the controls were added to the mixture and incubated for 72 h. Luminescence intensity was measured by a plate reader and the Piccagene (Measurement time: 1 s).
as §3

[4] = Cytotoxicity, alamarBlue viability, HuH28 cells; format: cell-based; conditions: human
Protocol: as §1, §2

[5] = tested on: T. cruzi Epi (Luc2-Tulahuen epimastigotes); experiment: In vitro assay for anti-epimastigote form of T. cruzi activity (luciferase); format: cell-based, Trypanosoma cruzi; conditions: for IC50: Trypanosoma cruzi, TULAHUEN, epimastigotes, 72 h
Protocol: Luc2-Tulahuen epimastigotes (2 × 10^5/well) were dispensed into 96-well plate. After 72 h incubation, luminescence intensity was measured by adding lysis buffer with luciferin as substrate (PicaGene Luminescence Kit, Fuji Film Wako chemicals, Japan) (Measurement time: 1 s).
as §3

[6] = tested on: NMH cells (newborn mouse heart fibroblast cells); experiment: Cytotoxicity, alamarBlue viability, NMH cells; format: cell-based
Protocol: as §1, §2

[7] = tested on: T. cruzi (Luc2-Tulahuen trypomastigotes); experiment: Murine acute infection model with live bioluminescence imaging; format: in vivo, BALB/c mice; conditions: for luminescence intensity / parasiticidal activity compared with benznidazole group: 30 mg/kg bid i.p. vs benznidazole 100 mg/kg p.o., day 4 to 8
Protocol: Mice were housed and maintained in Nagasaki University Biomedical Research Center (12 h light/dark cycle). Female BALB/c mice from 6 to 10 weeks old (20–25 g) were used in all the experiments. Mice were obtained as wild type from SLC (Japan). In standard experiments, 5 × 10^3 in vitro tissue culture-derived trypomastigotes (TCTs) was intra-peritoneally (i.p.) inoculated into mouse. The mice were handled according to the international guidelines and institutional guideline of Nagasaki University for the use and maintenance of experimental animals. Ethical approval for this study was obtained from the institutional ethical review board, Nagasaki University (approval number R12005).
Mice were intra-peritoneally injected with 150 mg/kg d-luciferin (SYD labs, USA), then anesthetized using 2.5% (vol/vol) gaseous isoflurane in oxygen. To measure bioluminescence, mice were placed in an IVIS Lumina II system (Caliper Life Science, USA) and images were acquired 10 min after d-luciferin administration using LivingImage 4.3 (Caliper Life Sciences, USA). Exposure time was fixed as 5 min. Anesthesia was maintained throughout the imaging process through the nose cone. Whole body luminescence was determined by drawing the region of interest (ROI) and quantifying the bioluminescence expressed as total flux (photons/second; p/s). Coptisine chloride was administered intra-peritoneally (i.p.) at a dose of 30 mg/kg twice a day. Benznidazole (100 mg/kg) as a positive control and the drug solvent as a negative control were administered orally (p.o.) once a day. Drug was administered for 5 consecutive days from day 4 to 8 of infection. Measurements with IVIS Lumina II were performed at five different times: on day 3 of infection (the day before drug treatment), on day 9 of infection (the day after drug treatment was completed), on day 14, 28 and 40 of infection. To maintain fairness, different experimenters performed drug treatments and luminescence intensity measurements. At day 29, BALB/c mice were injected with cyclophosphamide (Sigma-Aldrich, USA) (200 mg/kg) as an immunosuppressant by i.p. and were followed by a maximum of 3 doses at 3 day intervals. The use of immunosuppressant like cyclophosphamide could help enhance the visibility of the infected lesions even after 100 dpi. In this animal study, treatment was given when the luminescence intensity was high. In addition, an immunosuppressant was administered when the difference in luminescence intensity among the three groups became small due to natural immunity of the mice.

[8] = in vivo; cited from earlier work
[9] = tested on: DHODH in Plasmodium falciparum; design: method as in PMID 29582555; conditions: cited from earlier work
[10] = tested on: human DHODH; design: method as in PMID 29582555; conditions: cited from earlier work
[11] = tested on: mouse fibroblast cells (NMH) and human bile duct carcinoma cell line (HuH28); experiment: Cytotoxicity screen of Kampo library on host cells (alamarBlue); format: cell-based; conditions: compounds 20 μM (Fig. 2)
Excerpt: Data are presented as percent reduction in intensity, indicating cell viability. Experiments were done in triplicates

[12] = NMH cells (newborn mouse heart fibroblast cells), 72 h, read-out: CC50, NMH, AlamarBlue viability
[13] = HuH28 cells (human bile duct carcinoma cell line), 72 h, read-out: CC50, HuH28, AlamarBlue viability

SMILES	IC50 [2]	IC50 [3]	IC50 [5]	CC50 at 72 h [1]	CC50 at 72 h [4]	inhibition at 20 µM [2]	other results
c1cc2c(c3c1CC1c4cc5c(cc4CCN1C3)OCO5)OCO2 (racemic) [dl-Tetrahydro coptisine]	> 40 µM	> 40 µM					CC50 at 72 h [1, 12]: > 40 µM; loss of luminescence intensity in IC50 curve, in words ([2]; NMH cells and trypomastigotes (Supplement Figure 1)): No loss of intensity; loss of luminescence intensity in IC50 curve, in words [3]: No loss of intensity; CC50 at 72 h [4, 13]: > 100 µM
CC(C)=CC[C@H](O)C1=CC(=O)c2c(O)ccc(O)c2C1=O [Alkanin]							reduction of parasite signals (inhibition in the T. cruzi mixture culture) [2]: more than 80%
O=C(Cn1ccnc1[N+](=O)[O-])NCc1ccccc1 [Benznidazole, reference compound]	2.78 µM	4.91 µM	3.78 µM	> 40 µM	> 100 µM		
COc1ccc2cc3[n+](cc2c1OC)CCc1cc2c(cc1-3)OCO2.[Cl-] [Berberin chloride]							reduction of parasite signals (inhibition in the T. cruzi mixture culture) [2]: more than 80%
COc1ccc2cc3[n+](cc2c1O)CCc1cc2c(cc1-3)OCO2 [Berberrubine chloride]	20.1 µM	33.5 µM		> 40 µM	> 100 µM		cytotoxic effect against normal NMH cells, in words [6]: slight cytotoxic effect
c1c2c(cc3c1OCO3)-c1cc3ccc4c(c3c[n+]1CC2)OCO4 [Coptisine chloride]	4.48 µM	4.98 µM	15.1 µM			> 80%	effectiveness against epimastigotes relative to benznidazole ([5]; from IC50 15.1 µM vs 3.78 µM): fourfold less effective; CC50 at 72 h [1, 12]: > 40 µM; relapse detected on day 40 after immunosuppressant ([7]; 30 mg/kg bid i.p. day 4 to 8, compared with benznidazole 100 mg/kg p.o.): smaller than that in the benznidazole treatment group; luminescence intensity after immune suppression treatment compared with control group ([7]; 30 mg/kg bid i.p. day 4 to 8, day 40, after cyclophosphamide): significantly reduced; luminescence intensity / parasiticidal activity compared with benznidazole group ([7]; listed as coptisine): equivalent parasiticidal activity; luminescence intensity / parasiticidal activity compared with benznidazole group ([7]; listed as coptisine chloride): slightly higher than that of the benznidazole group; luminescence intensity of treated group compared with untreated group ([7]; 30 mg/kg bid i.p., day 4 to 8 of infection, after 5-day treatment): significantly reduced; adverse events during in vivo experiment ([7]; BALB/c mice, 30 mg/kg bid i.p.): did not see any significant adverse events; oral bioavailability, in words [8]: low; inhibition of DHODH in Plasmodium falciparum, in words [9]: non-competitively inhibits; inhibitory activity against human DHODH, in words [10]: weak inhibitory activity; CC50 at 72 h [4, 13]: > 100 µM; cytotoxic effect on host cells, in words [11]: relatively lower cytotoxicity
COc1cc2c(cc1OC)-c1c(C)c3ccc(OC)c(OC)c3c[n+]1CC2 [Dehydrocorydaline nitrate]	3.47 µM	7.89 µM	17.3 µM	> 40 µM	> 100 µM	> 80%	cytotoxic effect on host cells, in words [11]: relatively lower cytotoxicity
COc1cc2c(cc1OC)-c1cc3ccc4c(c3c[n+]1CC2)OCO4 [Epiberberine chloride]	> 40 µM	> 40 µM		> 40 µM	> 100 µM		loss of luminescence intensity in IC50 curve, in words [3]: No loss of intensity
COc1cc2c(cc1OC)-c1cc3ccc(OC)c(OC)c3c[n+]1CC2 [Palmatine chloride]	2.66 µM	17.4 µM	22.3 µM			> 80%	CC50 at 72 h [1, 12]: > 40 µM; CC50 at 72 h [4, 13]: > 100 µM; cytotoxic effect on host cells, in words [11]: relatively lower cytotoxicity
CC(C)=CC[C@@H](O)C1=CC(=O)c2c(O)ccc(O)c2C1=O [Shikonin]						> 80%	
C[C@H]1CC[C@@]2(OC1)O[C@H]1C[C@H]3[C@@H]4CC[C@@H]5C[C@@H](O[C@@H]6O[C@H](CO)[C@H](O)[C@H](O)[C@H]6O[C@@H]6O[C@H](CO)[C@@H](O)[C@H](O)[C@H]6O)CC[C@]5(C)[C@H]4CC[C@]3(C)[C@H]1[C@@H]2C [Timosaponin A-III]						> 80%	
